Measured values as given in the CheMixHub ionic liquid set.
“And” between values parts separate entries of the source, which are not always exact repeats. Equal entries are not always repeated. ± gives the uncertainty stated by the source.

Experiment: xn = mol fraction of the nth substance listed

Q: Which viscosity (293.15 K, 101.3 kPa, x2 = 0, x1 = 0.001795) does the source give for `CCOS(=O)(=O)[O-].CC[n+]1ccn(C)c1` + O=C([O-])c1ccccc1.[Na+] + O here?
A: The viscosity was 1.073 ± 0.071 mPa·s.

Q: And the viscosity (293.15 K, 101.3 kPa, x2 = 0, x1 = 0.002698)?
A: The viscosity was 1.107 ± 0.071 mPa·s.

Q: What about the viscosity (293.15 K, 101.3 kPa, x2 = 0, x1 = 0.003589) of the same compound?
A: The viscosity was 1.136 ± 0.071 mPa·s.

Q: What about the viscosity (298.15 K, 101.3 kPa, x2 = 0, x1 = 0.001795) of the same compound?
A: The viscosity was 0.96 ± 0.071 mPa·s.

Q: What about the viscosity (298.15 K, 101.3 kPa, x2 = 0, x1 = 0.002698) of the same compound?
A: The viscosity was 0.987 ± 0.071 mPa·s.

Q: And the viscosity (298.15 K, 101.3 kPa, x2 = 0, x1 = 0.003589)?
A: Its viscosity is 1.016 ± 0.071 mPa·s.

Q: What about the viscosity (303.15 K, 101.3 kPa, x2 = 0, x1 = 0.001795) of the same compound?
A: Its viscosity is 0.845 ± 0.071 mPa·s.

Q: And the viscosity (303.15 K, 101.3 kPa, x2 = 0, x1 = 0.002698)?
A: The viscosity was 0.876 ± 0.071 mPa·s.

Q: What about the viscosity (303.15 K, 101.3 kPa, x2 = 0, x1 = 0.003589) of the same compound?
A: The viscosity was 0.899 ± 0.071 mPa·s.

Q: What about the viscosity (308.15 K, 101.3 kPa, x2 = 0, x1 = 0.001795) of the same compound?
A: Its viscosity is 0.751 ± 0.071 mPa·s.

Q: What about the viscosity (308.15 K, 101.3 kPa, x2 = 0, x1 = 0.002698) of the same compound?
A: The viscosity was 0.788 ± 0.071 mPa·s.

Q: And the viscosity (308.15 K, 101.3 kPa, x2 = 0, x1 = 0.003589)?
A: The viscosity was 0.811 ± 0.071 mPa·s.

Q: And the viscosity (313.15 K, 101.3 kPa, x2 = 0, x1 = 0.001795)?
A: The viscosity was 0.679 ± 0.071 mPa·s.

Q: And the viscosity (313.15 K, 101.3 kPa, x2 = 0, x1 = 0.002698)?
A: The viscosity was 0.709 ± 0.071 mPa·s.

Q: What about the viscosity (313.15 K, 101.3 kPa, x2 = 0, x1 = 0.003589) of the same compound?
A: The viscosity was 0.727 ± 0.071 mPa·s.

Q: Which electrical conductivity (298.15 K, 100 kPa, x1 = 0.002) does the source give for `CCOS(=O)(=O)[O-].CC[n+]1ccn(C)c1` + OCC(O)CO here?
A: The electrical conductivity was 0.000368 ± 1.5e-05 S/m.

Q: What about the electrical conductivity (298.15 K, 100 kPa, x1 = 0.004) of the same compound?
A: Its electrical conductivity is 0.00065 ± 3e-05 S/m.

Q: And the electrical conductivity (298.15 K, 100 kPa, x1 = 0.012)?
A: Its electrical conductivity is 0.00204 ± 9e-05 S/m.

Q: What about the electrical conductivity (298.15 K, 100 kPa, x2 = 0.123) of the same compound?
A: Its electrical conductivity is 0.396 ± 0.016 S/m.

Q: What about the viscosity (298.15 K, 100 kPa, x2 = 0.123) of the same compound?
A: Its viscosity is 89.1 ± 2 mPa·s.

Q: What about the electrical conductivity (298.15 K, 100 kPa, x2 = 0.601) of the same compound?
A: The electrical conductivity was 0.248 ± 0.01 S/m.

Q: What about the viscosity (298.15 K, 100 kPa, x2 = 0.601) of the same compound?
A: The viscosity was 91.5 ± 2.2 mPa·s.

Q: What about the electrical conductivity (298.15 K, 100 kPa, x2 = 0.98) of the same compound?
A: The electrical conductivity was 0.00333 ± 0.00014 S/m.

Q: What about the viscosity (303.15 K, 100 kPa, x2 = 0.264) of the same compound?
A: The viscosity was 65 ± 1.4 mPa·s.

Q: And the viscosity (303.15 K, 100 kPa, x2 = 0.5)?
A: Its viscosity is 63.7 ± 1.4 mPa·s.

Q: What about the viscosity (303.15 K, 100 kPa, x2 = 0.98) of the same compound?
A: Its viscosity is 494 ± 18 mPa·s.

Q: And the electrical conductivity (313.15 K, 100 kPa, x1 = 0.002)?
A: Its electrical conductivity is 0.00114 ± 5e-05 S/m.

Q: And the viscosity (313.15 K, 100 kPa, x1 = 0.002)?
A: Its viscosity is 279.6 ± 8.8 mPa·s.

Q: And the electrical conductivity (313.15 K, 100 kPa, x1 = 0.004)?
A: Its electrical conductivity is 0.002 ± 8e-05 S/m.

Q: And the viscosity (313.15 K, 100 kPa, x1 = 0.004)?
A: The viscosity was 274.6 ± 8.6 mPa·s.

Q: And the electrical conductivity (313.15 K, 100 kPa, x2 = 0.958)?
A: The electrical conductivity was 0.0222 ± 0.0009 S/m.

Q: And the viscosity (313.15 K, 100 kPa, x2 = 0.958)?
A: Its viscosity is 199 ± 5.7 mPa·s.

Q: For `[Cl-].c1c[nH+]c[nH]1` + OCC(O)CO, which viscosity (313.2 K, 100 kPa, x1 = 0.1667) is on record?
A: The viscosity was 306 ± 24 mPa·s.

Q: What about the viscosity (313.2 K, 100 kPa, x1 = 0.3333) of the same compound?
A: The viscosity was 154.5 ± 7.7 mPa·s.

Q: What about the viscosity (323.2 K, 100 kPa, x1 = 0.25) of the same compound?
A: The viscosity was 107 ± 3.9 mPa·s.

Q: What about the viscosity (323.2 K, 100 kPa, x1 = 0.3333) of the same compound?
A: The viscosity was 84 ± 2.2 mPa·s.

Q: What about the viscosity (333.2 K, 100 kPa, x1 = 0.5) of the same compound?
A: The viscosity was 100.1 ± 3.2 mPa·s.

Q: And the viscosity (343.2 K, 100 kPa, x1 = 0.5)?
A: Its viscosity is 50.6 ± 0.7 mPa·s.

Q: With `CCOS(=O)(=O)[O-].CC[n+]1ccn(C)c1` + OCCN(CCO)CCO as the compound, how does the viscosity (303.15 K, 100 kPa, x2 = 0) read?
A: Its viscosity is 75.7 ± 1.6 mPa·s.

Q: Which viscosity (293.15 K, 100 kPa, x1 = 0.2999) does the source give for `CCOS(=O)(=O)[O-].CC[n+]1ccn(C)c1` + OCCO here?
A: Its viscosity is 20.52 ± 0.2 mPa·s.

Q: And the viscosity (293.15 K, 100 kPa, x2 = 0.406)?
A: Its viscosity is 41.6 ± 0.9 mPa·s.

Q: And the electrical conductivity (298.15 K, 100 kPa, x1 = 0.001)?
A: The electrical conductivity was 0.0067 S/m and 0.0121 S/m.

Q: And the viscosity (298.15 K, 100 kPa, x1 = 0.001)?
A: Its viscosity is 16 ± 0.3 mPa·s and 16.9 ± 0.4 mPa·s.

Q: And the viscosity (298.15 K, 100 kPa, x2 = 0)?
A: Its viscosity is 95.9 ± 2.1 mPa·s.

Q: What about the electrical conductivity (298.15 K, 100 kPa, x2 = 0.597) of the same compound?
A: The electrical conductivity was 0.95 ± 0.04 S/m.

Q: What about the viscosity (298.15 K, 100 kPa, x2 = 0.597) of the same compound?
A: The viscosity was 21.7 ± 0.5 mPa·s.

Q: And the electrical conductivity (298.15 K, 100 kPa, x2 = 0.851)?
A: Its electrical conductivity is 0.72 ± 0.03 S/m.

Q: And the viscosity (298.15 K, 100 kPa, x2 = 0.851)?
A: The viscosity was 14.8 ± 0.3 mPa·s.

Q: What about the viscosity (303.15 K, 100 kPa, x1 = 0.001) of the same compound?
A: The viscosity was 13.8 ± 0.3 mPa·s.

Q: What about the viscosity (303.15 K, 100 kPa, x1 = 0.5992) of the same compound?
A: Its viscosity is 28.04 ± 0.46 mPa·s.

Q: What about the viscosity (303.15 K, 100 kPa, x1 = 0.6994) of the same compound?
A: The viscosity was 37.14 ± 0.69 mPa·s.

Q: What about the viscosity (303.15 K, 100 kPa, x2 = 0.792) of the same compound?
A: The viscosity was 13 ± 0.3 mPa·s.

Q: What about the viscosity (308.15 K, 100 kPa, x1 = 0.1982) of the same compound?
A: Its viscosity is 10.85 ± 0.08 mPa·s.

Q: And the viscosity (308.15 K, 100 kPa, x1 = 0.2999)?
A: Its viscosity is 12.62 ± 0.12 mPa·s.

Q: And the electrical conductivity (313.15 K, 100 kPa, x1 = 0.001)?
A: Its electrical conductivity is 0.0115 S/m and 0.0206 S/m.

Q: What about the viscosity (313.15 K, 100 kPa, x1 = 0.001) of the same compound?
A: Its viscosity is 9.15 ± 0.19 mPa·s and 9.54 ± 0.2 mPa·s.

Q: What about the electrical conductivity (313.15 K, 100 kPa, x1 = 0.003) of the same compound?
A: Its electrical conductivity is 0.0362 ± 0.0015 S/m.

Q: And the viscosity (313.15 K, 100 kPa, x1 = 0.003)?
A: The viscosity was 9.48 ± 0.2 mPa·s.

Q: What about the electrical conductivity (313.15 K, 100 kPa, x1 = 0.008) of the same compound?
A: The electrical conductivity was 0.097 ± 0.004 S/m.

Q: And the viscosity (313.15 K, 100 kPa, x1 = 0.008)?
A: The viscosity was 9.49 ± 0.2 mPa·s.

Q: And the viscosity (313.15 K, 100 kPa, x1 = 0.1982)?
A: The viscosity was 9.37 ± 0.07 mPa·s.

Q: What about the electrical conductivity (313.15 K, 100 kPa, x2 = 0.406) of the same compound?
A: Its electrical conductivity is 1.27 ± 0.05 S/m.

Q: And the viscosity (313.15 K, 100 kPa, x2 = 0.406)?
A: Its viscosity is 20.6 ± 0.5 mPa·s.

Q: And the electrical conductivity (313.15 K, 100 kPa, x2 = 0.938)?
A: The electrical conductivity was 0.59 ± 0.02 S/m.

Q: And the viscosity (313.15 K, 100 kPa, x2 = 0.938)?
A: The viscosity was 9.05 ± 0.19 mPa·s.

Q: And the viscosity (318.15 K, 100 kPa, x1 = 0.1982)?
A: Its viscosity is 8.15 ± 0.06 mPa·s.

Q: And the viscosity (318.15 K, 100 kPa, x1 = 0.4002)?
A: Its viscosity is 11.61 ± 0.14 mPa·s.

Q: What about the viscosity (318.15 K, 100 kPa, x1 = 0.8001) of the same compound?
A: Its viscosity is 27.31 ± 0.57 mPa·s.

Q: And the viscosity (318.15 K, 100 kPa, x1 = 0.8993)?
A: The viscosity was 35.33 ± 0.81 mPa·s.

Q: What about the viscosity (323.15 K, 100 kPa, x1 = 0.1003) of the same compound?
A: Its viscosity is 6.66 ± 0.04 mPa·s.

Q: And the viscosity (333.15 K, 100 kPa, x1 = 0.1003)?
A: Its viscosity is 5.1 ± 0.03 mPa·s.

Q: What about the viscosity (333.15 K, 100 kPa, x1 = 0.1982) of the same compound?
A: The viscosity was 5.59 ± 0.04 mPa·s.

Q: And the viscosity (333.15 K, 100 kPa, x1 = 0.5005)?
A: Its viscosity is 9.85 ± 0.14 mPa·s.

Q: And the viscosity (338.15 K, 100 kPa, x1 = 0.5992)?
A: Its viscosity is 10.45 ± 0.17 mPa·s.

Q: What about the viscosity (343.15 K, 100 kPa, x1 = 0.5005) of the same compound?
A: The viscosity was 7.87 ± 0.11 mPa·s.

Q: What about the viscosity (343.15 K, 100 kPa, x1 = 0.5992) of the same compound?
A: The viscosity was 9.34 ± 0.15 mPa·s.

Q: What about the viscosity (343.15 K, 100 kPa, x1 = 0.8001) of the same compound?
A: Its viscosity is 13.58 ± 0.28 mPa·s.
